Like-named read-outs stand apart in the source and are kept apart here.
What was measured:
jackbean α-mannosidase = target: T1, jackbean α-mannosidase (Canavalia ensiformis, UniProt C0HJB3); assay: Glycosidase inhibition / KI determination, jackbean α-mannosidase; assay type: biochemical
T1 construct: host or cells: jack bean
T1 sequence (C0HJB3 1-981): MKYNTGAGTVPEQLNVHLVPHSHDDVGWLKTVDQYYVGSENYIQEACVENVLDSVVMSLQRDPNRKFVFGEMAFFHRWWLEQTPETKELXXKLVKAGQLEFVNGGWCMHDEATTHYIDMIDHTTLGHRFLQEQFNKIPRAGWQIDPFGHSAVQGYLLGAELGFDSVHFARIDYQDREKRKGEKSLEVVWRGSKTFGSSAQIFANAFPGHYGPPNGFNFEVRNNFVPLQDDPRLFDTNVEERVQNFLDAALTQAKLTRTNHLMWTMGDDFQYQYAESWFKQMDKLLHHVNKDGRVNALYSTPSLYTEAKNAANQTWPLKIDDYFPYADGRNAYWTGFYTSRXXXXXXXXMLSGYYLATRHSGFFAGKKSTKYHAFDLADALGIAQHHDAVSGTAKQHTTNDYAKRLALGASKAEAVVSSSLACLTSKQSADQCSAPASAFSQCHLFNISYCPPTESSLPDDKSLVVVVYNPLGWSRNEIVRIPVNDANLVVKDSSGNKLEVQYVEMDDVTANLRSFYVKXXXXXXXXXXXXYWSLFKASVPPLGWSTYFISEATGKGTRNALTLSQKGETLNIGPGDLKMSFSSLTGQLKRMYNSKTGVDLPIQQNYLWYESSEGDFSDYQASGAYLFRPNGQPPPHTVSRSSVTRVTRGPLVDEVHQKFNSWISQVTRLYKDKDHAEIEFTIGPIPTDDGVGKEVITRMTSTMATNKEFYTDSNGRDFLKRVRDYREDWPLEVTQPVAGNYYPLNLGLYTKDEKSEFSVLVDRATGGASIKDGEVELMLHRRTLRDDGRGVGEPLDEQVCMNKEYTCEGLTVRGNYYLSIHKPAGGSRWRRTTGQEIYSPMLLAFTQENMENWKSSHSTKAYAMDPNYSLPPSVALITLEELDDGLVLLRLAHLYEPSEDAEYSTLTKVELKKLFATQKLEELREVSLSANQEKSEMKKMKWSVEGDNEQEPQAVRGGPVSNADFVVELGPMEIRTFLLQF
Description: (§1) pH for Enzyme Assays--Yeast e-glucosidase and green coffee bean α-galactosidase were assayed at pH 6.6. Almond β-glucosidase and jackbean α-mannosidase were assayed at pH 5.0. Bovine liver β-galactosidase was assayed at pH 7.0.
(§2) Working Enzyme Solutions--Typical enzyme concentrations in the assay buffer for inhibitor screening were as follows: yeast α-glucosidase, 10 μL of enzyme suspension in 2.00 mL pH 6.6 phosphate-citrate buffer; almond β-glucosidase, 25 μL of enzyme solution (0.4 mg solid enzyme in 70 μL pH 5.0 NaCl/NaOAc buffer) in 5.00 mL pH 5.0 NaCl/NaOAc buffer; jackbean α-mannosidase, 5-8 μL of enzyme suspension in 2.00 mL NaCl/NaOAc buffer; green coffee bean α galactosidase, 15 μL of enzyme suspension in 1.2 mL NaCl/NaOAc buffer; bovine liver β-galactosidase, 1.7 mg solid enzyme in 850 μL, NaCl/NaOAc buffer.
(§3) An acceptable concentration of enzyme, upon hydrolysis of the corresponding glycoside, should give an absorbance reading between 0.4 and 2.0 at 400 nm. A control assay was first performed to determine whether the enzyme concentration was acceptable. The assays involved addition of working enzyme solution (0.09 mL) and deionized water (0.18 mL) to buffer at the appropriate pH (0.09 mL, phosphate-citrate). The resulting solution was incubated at 37° C. for 5 minutes. Aliquots (0.1 mL) of this preincubation mixture was then added to three separate test tubes. Substrate (the corresponding p-nitrophenyl-D-glycoside, 0.1 mL, 10 mM in appropriate buffer), which had also been incubated at 37° C., was then added to each tube at thirty-second intervals. The hydrolyses were allowed to continue for 0.25 hours and then quenched by addition of glycine buffer (2.5 mL). The absorbance of the resulting solution was measure at 400 nm. Once this control run of the system gave an absorbance within 0.4-2.0, the potential inhibitors were assayed against this working enzyme solution at final inhibitor and substrate concentrations of 1 and 5 mM, respectively. In the inhibitor assays, deionized water was replaced by the inhibitor ([…] solution in deionized water). All inhibitors were tested in triplicate, with a control (by substituting the inhibitors with deionized water) and a standard.
(§4) Five substrate solutions (usually […]) and five inhibitor solutions (usually 0-200 μM) were prepared. To a 3-mL test tube were added buffer at the appropriate pH (0.28 mL, phosphate-citrate), working enzyme solution (0.28 mL) and inhibitor solution (0.56 mL). The solution was incubated at 37° C. for 5 minutes. Aliquots (0.1 mL) of this solution were then pipetted into ten separate test tubes. Substrate solution (0.1 mL) was then added to each tube at thirty-second intervals. Duplicate reactions were terminated by addition of glycine buffer (2.5 mL) at the end of 3, 6, 8, 10, and 12 minutes. The amound of released p-nitrophenolate was measured spectrophotometrically at 400 nm. The process was repeated for all combinations of inhibitor and substrate concentrations.
(§5) The velocities (V) of substrate hydrolysis at every combination of inhibitor [I] and substrate [S] concentrations were determined by plotting the absorbance values with respect to time and t]hen calculating the slopes of the lines. Double reciprocal plots of 1/V versus 1/[S] at different [I] were then generated. The slopes of each of these lines were then plotted against [I] and the data were fitted to a straight line. The [I]-intercept gave the enzyme-inhibitor dissociation constant. KI values were also calculated from Hanes-Woolf plots of [S]/V vs. [S] by replotttng the [S]/V intercepts versus [I] and ascertaining the [I] intercept. KI values in the Table represent an average of the two calculations.

almond β-glucosidase = assay: Glycosidase inhibition / KI determination, almond β-glucosidase; assay type: biochemical; settings: pH 5.0, read-out: KI β-Glu pH 5.0
Description: as §1, §2, §3, §4, §5

[1] = target: T2, bovine liver β-galactosidase (Bos taurus, UniProt F1MNT6); assay: Glycosidase inhibition / KI determination, bovine liver β-galactosidase; assay type: biochemical
T2 construct: from tissue; host or cells: bovine liver
T2 sequence (F1MNT6 1-469): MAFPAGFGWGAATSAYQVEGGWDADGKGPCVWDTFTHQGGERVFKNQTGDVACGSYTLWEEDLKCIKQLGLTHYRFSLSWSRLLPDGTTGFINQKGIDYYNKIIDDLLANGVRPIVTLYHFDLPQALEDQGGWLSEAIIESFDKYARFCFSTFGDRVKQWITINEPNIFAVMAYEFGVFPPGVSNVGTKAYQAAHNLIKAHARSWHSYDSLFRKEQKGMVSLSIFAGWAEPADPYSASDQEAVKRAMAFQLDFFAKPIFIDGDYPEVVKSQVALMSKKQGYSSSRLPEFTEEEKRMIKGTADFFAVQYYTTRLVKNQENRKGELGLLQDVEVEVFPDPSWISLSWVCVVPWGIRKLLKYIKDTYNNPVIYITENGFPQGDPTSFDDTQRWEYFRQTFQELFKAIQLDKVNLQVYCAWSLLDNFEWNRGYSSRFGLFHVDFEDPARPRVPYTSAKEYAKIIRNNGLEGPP
Description: as §1, §2, §3, §4
(§6) The velocities (V) of substrate hydrolysis at every combination of inhibitor [I] and substrate [S] concentrations were determined by plotting the absorbance values with respect to time and t]hen calculating the slopes of the lines. Double reciprocal plots of 1/V versus 1/[S] at different [I] were then generated. […] KI values were also calculated from Hanes-Woolf plots of [S]/V vs. [S] by replotttng the [S]/V intercepts versus [I] and ascertaining the [I] intercept. […]

glucosidases = settings: cited from earlier work
[2] = target: green coffee bean α-galactosidase (Coffea arabica, UniProt Q42656); assay: Glycosidase inhibition, green coffee bean α-galactosidase; assay type: biochemical; settings: coffeebean galactosidase
Description: as §1, §2
(§7) An acceptable concentration of enzyme, upon hydrolysis of the corresponding glycoside, should give an absorbance reading between 0.4 and 2.0 at 400 nm. A control assay was first performed to determine whether the enzyme concentration was acceptable. The assays involved addition of working enzyme solution (0.09 mL) and deionized water (0.18 mL) to buffer at the appropriate pH (0.09 mL, phosphate-citrate). […] The absorbance of the resulting solution was measure at 400 nm. Once this control run of the system gave an absorbance within 0.4-2.0, the potential inhibitors were assayed against this working enzyme solution at final inhibitor and substrate concentrations of 1 and 5 mM, respectively. […]
(§8) Five substrate solutions (usually […]) and five inhibitor solutions (usually 0-200 μM) were prepared. […] The amound of released p-nitrophenolate was measured spectrophotometrically at 400 nm. […]
as §6, with “lines.” for “lines. Double reciprocal plots of 1/V versus 1/[S] at different [I] were then generated.”

[3] = target: T3, A. niger amyloglucosidase (Aspergillus niger, UniProt P69328); assay: Glycosidase inhibition, A. niger amyloglucosidase; assay type: biochemical; settings: pH 5.0, read-out: amylo-Glu pH 5.0 (class)
T3 construct: host or cells: Aspergillus niger
Description: as §3, §8
as §6, with “lines.” for “lines. Double reciprocal plots of 1/V versus 1/[S] at different [I] were then generated.”

yeast α-glucosidase = target: T4, yeast α-glucosidase (Saccharomyces cerevisiae, UniProt P53341); assay: Glycosidase inhibition / KI determination, yeast α-glucosidase; assay type: biochemical
T4 construct: host or cells: yeast
Description: as §1, §2, §7, §8
as §6, with “lines.” for “lines. Double reciprocal plots of 1/V versus 1/[S] at different [I] were then generated.”

HIV = settings: cited from earlier work
mannosidases = settings: cited from earlier work
galactosidases = settings: cited from earlier work
[4] = pH 5.0, read-out: KI α-man pH 5.0
[5] = pH 7.0, read-out: KI β-gal pH 7.0
[6] = pH 7.0, read-out: β-gal pH 7.0 (class)

T4 sequence (P53341 whole entry): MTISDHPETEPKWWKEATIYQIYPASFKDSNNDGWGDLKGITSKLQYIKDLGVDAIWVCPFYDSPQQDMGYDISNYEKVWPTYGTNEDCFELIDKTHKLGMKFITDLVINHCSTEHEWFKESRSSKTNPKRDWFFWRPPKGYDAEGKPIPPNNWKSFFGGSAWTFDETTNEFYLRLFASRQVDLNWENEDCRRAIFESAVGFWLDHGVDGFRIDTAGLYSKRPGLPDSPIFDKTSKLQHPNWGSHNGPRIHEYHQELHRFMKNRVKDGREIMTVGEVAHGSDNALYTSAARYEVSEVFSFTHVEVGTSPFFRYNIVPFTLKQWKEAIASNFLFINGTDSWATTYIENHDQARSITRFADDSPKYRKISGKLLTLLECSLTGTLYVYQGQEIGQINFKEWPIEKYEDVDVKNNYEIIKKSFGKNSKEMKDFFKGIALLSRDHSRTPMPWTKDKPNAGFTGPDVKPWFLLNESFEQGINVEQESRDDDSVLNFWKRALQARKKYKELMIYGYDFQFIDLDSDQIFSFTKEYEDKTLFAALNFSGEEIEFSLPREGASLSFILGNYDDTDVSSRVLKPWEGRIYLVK
T3 sequence (P69328 25-640): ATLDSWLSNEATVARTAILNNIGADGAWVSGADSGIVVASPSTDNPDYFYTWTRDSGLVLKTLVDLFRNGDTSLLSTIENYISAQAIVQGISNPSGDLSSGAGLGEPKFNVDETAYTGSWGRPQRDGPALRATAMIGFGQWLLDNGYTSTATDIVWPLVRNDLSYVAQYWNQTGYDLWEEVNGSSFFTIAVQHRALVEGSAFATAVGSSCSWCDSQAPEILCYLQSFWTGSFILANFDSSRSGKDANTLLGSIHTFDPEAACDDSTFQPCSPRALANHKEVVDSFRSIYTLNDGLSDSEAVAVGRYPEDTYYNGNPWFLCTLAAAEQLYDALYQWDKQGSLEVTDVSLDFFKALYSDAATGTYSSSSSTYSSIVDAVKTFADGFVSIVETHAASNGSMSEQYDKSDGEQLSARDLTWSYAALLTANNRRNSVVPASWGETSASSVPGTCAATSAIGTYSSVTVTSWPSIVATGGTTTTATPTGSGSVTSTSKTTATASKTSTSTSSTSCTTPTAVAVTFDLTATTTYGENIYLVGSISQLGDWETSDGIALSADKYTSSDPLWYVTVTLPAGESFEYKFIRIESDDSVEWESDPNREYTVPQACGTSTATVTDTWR
Sequence of green coffee bean α-galactosidase (Q42656 16-378): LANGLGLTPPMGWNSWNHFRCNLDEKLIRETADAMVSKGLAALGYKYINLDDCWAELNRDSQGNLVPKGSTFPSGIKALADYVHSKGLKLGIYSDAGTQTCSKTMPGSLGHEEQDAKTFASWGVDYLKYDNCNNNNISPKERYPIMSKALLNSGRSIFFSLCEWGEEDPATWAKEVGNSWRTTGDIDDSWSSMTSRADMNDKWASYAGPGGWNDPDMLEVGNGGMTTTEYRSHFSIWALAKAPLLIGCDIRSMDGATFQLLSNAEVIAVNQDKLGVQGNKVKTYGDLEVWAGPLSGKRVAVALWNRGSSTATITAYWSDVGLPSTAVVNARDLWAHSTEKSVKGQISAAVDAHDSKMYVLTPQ

SMILES: OC[C@H]1N=C(NO)[C@@H](O)[C@@H](O)[C@@H]1O [Compound 15, D-Mannoamidoxime]
- Ki (jackbean α-mannosidase; [4]): 2 ± 0.1 µM

SMILES: NNC1=N[C@H](CO)[C@@H](O)[C@H](O)[C@@H]1O [Compound 9, D-Mannoamidrazone]
- Ki (jackbean α-mannosidase; [4]): 0.166 ± 0.013 µM
- Ki (almond β-glucosidase): 205 ± 25 µM
- Ki [1, 5]: 57 ± 2.5 µM

SMILES: NC1O[C@H](CO)[C@@H](O)[C@H](O)[C@H]1O (stereo partly drawn) [glucosylamine]
- inhibition of α- and β-glucosidases (glucosidases; α- and β-glucosidases): inhibits both α- and β-glucosidases

SMILES: NNC1=N[C@H](CO)[C@@H](O)[C@H](O)[C@H]1O [Compound 8, D-Glucoamidrazone]
- Ki (jackbean α-mannosidase; [4]): 6.5 ± 3 µM
- Ki (almond β-glucosidase): 8.4 ± 0.9 µM
- Ki [1, 5]: 19 µM

SMILES: NC1=N[C@H](CO)[C@@H](O)[C@H](O)[C@H]1O [Compound 1, D-Glucoamidine]
- Ki (jackbean α-mannosidase; [4]): 9 µM
- α-gal pH 6.6 (class) [2]: none
- Ki (almond β-glucosidase): 8 µM
- Ki [1, 6]: < 100 µM
- Ki [3]: > 1000 µM
- α-Glu pH 6.6 (class) (yeast α-glucosidase): none

SMILES: OC[C@H]1N=C(NO)[C@H](O)[C@@H](O)[C@@H]1O [Compound 13, D-Glucoamidoxime]
- Ki (jackbean α-mannosidase; [4]): 10 ± 2 µM
- Ki (almond β-glucosidase): 13.8 ± 3 µM

SMILES: CN(C)C1=N[C@H](CO)[C@@H](O)[C@H](O)[C@H]1O [Compound 2, D-Gluco-N,N-Dimethylamidine]
- Ki (jackbean α-mannosidase; pH 5.0, read-out: α-man pH 5.0 (class)): < 100 µM
- α-gal pH 6.6 (class) [2]: none
- Ki (almond β-glucosidase): 83 µM
- Ki [1, 6]: < 100 µM
- Ki [3]: > 1000 µM
- α-Glu pH 6.6 (class) (yeast α-glucosidase): none

SMILES: OC[C@H]1NC[C@H](O)[C@@H](O)[C@@H]1O [Compound B, 1-deoxynojirimycin]
- glucosidase inhibition (glucosidases): potent glucosidase inhibitors
- effect on infectivity of HIV (HIV): interfere with the infectivity of HIV

SMILES: OC[C@H]1NC[C@@H](O)[C@@H](O)[C@@H]1O [C, 1-deoxymannojirimycin]
- mannosidase inhibition (mannosidases): inhibits mannosidases

SMILES: OC[C@H]1NC(O)[C@H](O)[C@@H](O)[C@H]1O (stereo partly drawn) [D, galactostatin]
- galactosidase inhibition (galactosidases): inhibits galactosidases

SMILES: OC[C@H]1NC(O)[C@H](O)[C@@H](O)[C@@H]1O (stereo partly drawn) [Nojirimycin, nojirimycin, reference compound]
- α-man pH 5.0 (class) (jackbean α-mannosidase): moderate
- α-gal pH 6.6 (class) [2]: mod-none
- Ki (almond β-glucosidase): 380 µM
- glucosidase inhibition (glucosidases): potent glucosidase inhibitors
- Ki [1, 6]: > 1000 µM
- Ki [3]: > 1000 µM
- Ki (yeast α-glucosidase; pH 6.6, read-out: KI α-Glu pH 6.6): 13 µM

Reference: patent publication US5434266A, “Monosaccharide analog-based glycosidase inhibitors” (priority 1993, dated 1995)
